From patent US7572816B2, “Therapeutic agents for the treatment of cancer, metabolic diseases and skin disorders” (Auspex Pharmaceuticals, Inc., priority 2004, dated 2009)

What was measured:
Type in all cases: cell-based
[1] = test system: human head and neck squamous cell carcinoma cells (SCC 103); test: SCC103 Tumor Cell Proliferation Assay; details: SCC 103 cells; FIG. 7 and FIG. 8
Method: (§1) SCC 103 cells (15,000 per well in 90% EMEM medium plus 10% Fetal Bovine Serum [FBS]) were pre-incubated in a black clear bottom 96-well plate in an atmosphere of 5% CO2 at 37° C. for 24 hours. Stock solutions of compounds in DMSO were diluted using a buffer and dilutions were added to each well. […] The final assay pH was 7.4. The cells were incubated in EMEM medium for an additional 72 hours. Alamar Blue (10% of culture volume) was added and the plate was incubated for an additional 12 hours. Fluorescence intensity was measured using a Gemini plate reader with excitation at 530 nm and emission at 590 nm. A decrease of 50 percent or more (≧50%) in fluorescence intensity relative to vehicle treated controls is an indication of significant anti-cancer activity.

[2] = test system: human colon cancer cells (LS174T); test: LS174T growth inhibition; details: FIG. 5 and FIG. 6
[3] = test system: human melanoma cells (A375); details: FIG. 1 and FIG. 2
Method: A375 cells (5,000 per well in 90% RPMI-1640 plus 10% Fetal Bovine Serum [FBS]) were pre-incubated in a black clear bottom 96-well plate in an atmosphere of 5% CO2 at 37° C. for 24 hours. Stock solutions of compounds in DMSO were diluted using a buffer and dilutions were added to each well. […] The final assay pH was 7.4. The cells were incubated in RPMI-1 640 with each compound for an additional 72 to 168 hours. Alamar Blue was added and the plate was incubated for an additional 12 hours. Fluorescence intensity was measured using a Gemini plate reader with excitation at 530 nm and emission at 590 nm. A decrease of 50 percent or more (≧50%) in fluorescence intensity relative to vehicle treated controls is an indication of significant anti-cancer activity.
TGI (Total Growth Inhibition): Test compound concentration where the increase in number or mass of cells after 72 to 168 hours is reduced to equal that at time t=0.

[4] = test system: human hepatic carcinoma cells (HepG2); test: HepG2 Tumor Cell Proliferation Assay; details: FIG. 3 and FIG. 4
Method: as §1, with “HepG2” for “SCC 103”, “(5,000” for “(15,000”, “[…]” for “96-well”

Measured: growth inhibitory effect compared to Bexarotene

C=C(c1ccc(CN2C(=O)CCNC2=O)cc1)c1cc2c(cc1C)C(C)(C)CCC2(C)C [Example 13, 3-{4-[1-(3,5,5,8,8-Pentamethyl-5,6,7,8-tetrahydro-naphthalen-2-yl)-vinyl]-benzyl}-dihydro-pyrimidine-2,4-dione]
enhanced activity: all assays above

C=C(c1ccc(CN2C(=O)N(C)C(C)(C)C2=O)cc1)c1cc2c(cc1C)C(C)(C)CCC2(C)C [Example 14, 1,5,5-Trimethyl-3-{4-[1-(3,5,5,8,8-pentamethyl-5,6,7,8-tetrahydro-naphthalen-2-yl)-vinyl]-benzyl}-imidazolidine-2,4-dione]
enhanced activity: [1] | [2] | [3]

C=C(c1ccc(CN2C(=O)CN(C)C2=O)cc1)c1cc2c(cc1C)C(C)(C)CCC2(C)C [Example 11, 1-Methyl-3-{4-[1-(3,5,5,8,8-pentamethyl-5,6,7,8-tetrahydro-naphthalen-2-yl)-vinyl]-benzyl}-imidazolidine-2,4-dione]
enhanced activity: all assays above

C=C(c1ccc(CN2C(=O)NC(C)(C)C2=O)cc1)c1cc2c(cc1C)C(C)(C)CCC2(C)C [Example 12, 5,5-Dimethyl-3-{4-[1-(3,5,5,8,8-pentamethyl-5,6,7,8-tetrahydro-naphthalen-2-yl)-vinyl]-benzyl}-imidazolidine-2,4-dione]
enhanced activity: all assays above

C=C(c1ccc(CC(C(N)=O)C(N)=O)cc1)c1cc2c(cc1C)C(C)(C)CCC2(C)C [Example 8, 2-{4-[1-(3,5,5,8,8-Pentamethyl-5,6,7,8-tetrahydro-naphthalen-2-yl)-vinyl]-benzyl}-malonamide]
enhanced activity: all assays above

C=C(c1ccc(CN2C(=O)CSC2=O)cc1)c1cc2c(cc1C)C(C)(C)CCC2(C)C [Example 10, 3-{4-[1-(3,5,5,8,8-Pentamethyl-5,6,7,8-tetrahydro-naphthalen-2-yl)-vinyl]-benzyl}-thiazolidine-2,4-dione]
enhanced activity: [1] | [3]
